Laboratory results published in ChEMBL document CHEMBL1201862, “PubChem BioAssay data set” (2004).
Activity calls are given as the source filed them.

Legend:
[1] = HEK-293T cell viability reduction – luminescence, B-cell screen hits, cytotoxicity control for BCR NF-kB inhibitor project, dose response (AID 489021); format: functional, cell-based;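 further: HEK-293T cells carrying an NF-kB luciferase reporter; cells exposed to compound for about 14 hours before viability readout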
[2] = biological target: Sphingosine 1-phosphate receptor 2 (Homo sapiens, UniProt O95136); assay: Dose Response Cell Based Assay for Antagonists of the S1P2 Receptor. [Related pubchem assays: 856, 736 ]; format: functional
[3] = A549 cell cytotoxicity, dose response, cytotoxicity control, plate reader, cherry-pick, antagonist series (AID 743412); format: functional, cell-based
[4] = biological target: Voltage-gated N-type calcium channel alpha-1B subunit/Amyloid beta A4 precursor protein-binding family A member 1 (Homo sapiens, UniProt Q00975+Q02410); format: protein assay
[5] = Trypanosoma cruzi growth suppression in host cells – NIH3T3 host cells, beta-gal luminescence, confirmation (AID 2044); format: functional, cell-based;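 further: intracellular parasites grown in NIH/3T3 mouse fibroblasts as host cells; luminescent beta-galactosidase reporter signal from transgenic T. cruzi replicating inside host cells; inhibitors lower the luminescence signal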
Beta-galactosidase = Beta-galactosidase (Escherichia coli, UniProt Q8VNN2); assay: detection-enzyme interference by beta-gal modulators – biochemical, E. coli enzyme, set 3, artefact control for CCR6 antagonist project, dose response (AID 504712); format: functional
[6] = NIH3T3 cell viability loss – ATP luminescence, mouse fibroblasts, counter-screen, dose response (AID 2010); format: functional, cell-based;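 further: cells exposed to compound for about 90 hours before reading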
[7] = biological target: T1, Dual specificity protein phosphatase 6 (Rattus norvegicus, UniProt Q64346); assay: inhibition of rat DUSP6 enzyme activity – biochemical, in vitro, primary screen (AID 425)
T1 sequence (Q64346 whole entry): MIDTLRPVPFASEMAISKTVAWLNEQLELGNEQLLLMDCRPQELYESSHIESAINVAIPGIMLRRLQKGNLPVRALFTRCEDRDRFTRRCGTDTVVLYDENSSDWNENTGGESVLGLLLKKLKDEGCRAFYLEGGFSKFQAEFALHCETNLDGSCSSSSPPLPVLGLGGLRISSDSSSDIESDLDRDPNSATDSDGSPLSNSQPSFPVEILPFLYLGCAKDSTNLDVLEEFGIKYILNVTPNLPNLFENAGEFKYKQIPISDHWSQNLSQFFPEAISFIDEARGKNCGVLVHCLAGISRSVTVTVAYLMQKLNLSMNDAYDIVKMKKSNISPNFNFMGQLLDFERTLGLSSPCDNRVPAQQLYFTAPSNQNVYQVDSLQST

Estrogen receptor = biological target: T2, Estrogen receptor (Homo sapiens, UniProt P03372);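 further: potency for inhibiting coactivator peptide recruitment to the receptor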
T2 sequence (P03372 whole entry): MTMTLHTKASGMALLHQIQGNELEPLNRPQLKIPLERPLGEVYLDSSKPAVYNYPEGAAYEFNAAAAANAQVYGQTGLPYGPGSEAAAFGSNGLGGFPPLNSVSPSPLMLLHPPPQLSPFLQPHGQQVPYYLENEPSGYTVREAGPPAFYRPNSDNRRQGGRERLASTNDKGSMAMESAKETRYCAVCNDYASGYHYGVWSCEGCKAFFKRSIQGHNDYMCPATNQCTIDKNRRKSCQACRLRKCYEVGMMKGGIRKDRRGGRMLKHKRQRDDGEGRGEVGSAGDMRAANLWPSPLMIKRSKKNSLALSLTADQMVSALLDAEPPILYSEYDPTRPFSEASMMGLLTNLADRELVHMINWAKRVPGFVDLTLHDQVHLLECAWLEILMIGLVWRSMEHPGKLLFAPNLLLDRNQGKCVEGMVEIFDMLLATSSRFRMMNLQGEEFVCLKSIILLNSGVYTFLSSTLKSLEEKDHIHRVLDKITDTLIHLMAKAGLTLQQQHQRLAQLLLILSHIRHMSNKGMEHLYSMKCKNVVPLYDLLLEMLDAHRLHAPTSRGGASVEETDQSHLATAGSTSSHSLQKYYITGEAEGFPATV

Estrogen receptor beta = Estrogen receptor beta (Homo sapiens, UniProt Q92731); assay: blockers of SRC-3 recruitment to ERβ – biochemical, ELISA, streptavidin-HRP readout, orthogonal assay, confirmation (AID 1060)
[8] = HEK293 Cytotoxicity Assay Measured in Cell-Based System Using Plate Reader - 7071-01_Inhibitor_Dose_CherryPick_Activity_Set2.; format: functional
HEK293 = assay: viability loss in HEK293T cells – cell-based, ATP luminescence, cherry-pick samples, cytotoxicity control, dose response (AID 687005); format: functional; conditions: Homo sapiens;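 further: cells exposed to compound for 48 hours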
Cryptococcus neoformans = assay: PubChem AID 686997; format: functional, organism-based; conditions: Cryptococcus neoformans
[9] = Luminescence Cell-Based Dose Confirmation HTS to Identify Inhibitors of Polyadenylation.; format: functional
Escherichia coli = assay: microbe, parasite or virus in culture
[10] = biological target: T3, Corticotropin-releasing factor receptor 2/Corticotropin-releasing factor-binding protein (Homo sapiens, UniProt P24387+Q13324); assay: activators of CRF receptor 2 with binding protein – uHTS hits, confirmation (AID 602473); format: functional; conditions: read-out: EC50_Mean
T3 sequence (Q13324 whole entry): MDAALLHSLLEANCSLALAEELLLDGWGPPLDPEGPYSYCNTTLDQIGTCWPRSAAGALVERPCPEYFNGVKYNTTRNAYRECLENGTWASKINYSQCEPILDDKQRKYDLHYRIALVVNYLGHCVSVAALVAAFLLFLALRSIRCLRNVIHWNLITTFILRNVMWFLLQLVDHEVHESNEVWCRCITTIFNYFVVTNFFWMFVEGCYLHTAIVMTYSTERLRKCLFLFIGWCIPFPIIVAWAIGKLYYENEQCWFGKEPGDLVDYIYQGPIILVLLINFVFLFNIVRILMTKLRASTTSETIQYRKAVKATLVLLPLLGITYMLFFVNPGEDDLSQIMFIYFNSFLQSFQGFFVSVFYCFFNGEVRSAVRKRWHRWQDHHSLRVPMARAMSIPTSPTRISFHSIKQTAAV
T3 sequence (P24387 whole entry): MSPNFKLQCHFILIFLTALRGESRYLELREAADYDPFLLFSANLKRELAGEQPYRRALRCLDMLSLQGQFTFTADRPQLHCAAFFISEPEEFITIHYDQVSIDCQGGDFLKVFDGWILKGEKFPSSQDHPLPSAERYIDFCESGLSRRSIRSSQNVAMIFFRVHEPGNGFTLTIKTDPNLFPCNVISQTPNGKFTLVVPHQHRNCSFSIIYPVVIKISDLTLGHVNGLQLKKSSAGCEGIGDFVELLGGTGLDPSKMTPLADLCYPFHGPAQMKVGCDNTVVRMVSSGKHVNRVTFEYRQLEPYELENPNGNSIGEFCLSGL

[11] = alpha-synuclein stem-loop luciferase translation blockers – H4 neuroglioma cells, luminescence, confirmation (AID 1988); format: functional, cell-based
[12] = Luminescence Cell-Based Dose Response HTS to Identify Inhibitors of 5'UTR Stem-Loop Driven Prion Protein mRNA Translation in H4 Neuroglioblastoma Cells. [Related pubchem assays: 1827 (Project Summary), 1813 (Primary HTS)]; format: functional
[13] = luciferase reporter signal suppression in cells – H4 neuroglioma cells, luminescence, dose response (AID 1990); format: functional, cell-based
HeLa = assay: viability loss in HeLa cells – cell-based, ATP luminescence, cherry-pick samples, cytotoxicity control, dose response (AID 687004); format: functional; conditions: Homo sapiens
[14] = HIV-1 Vif–A3G interaction blockers – biochemical, TR-FRET, GST-Vif 1-94, biotin-A3G peptide, dose response retest, primary screen (AID 1117319); format: functional;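 further: TR-FRET signal of purified GST-Vif binding a biotinylated A3G peptide; inhibitors lower the FRET signal by blocking Vif and A3G binding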
[15] = biological target: Mitogen-activated protein kinase 10 (Homo sapiens, UniProt P53779); assay: Dose response biochemical screening assay for inhibitors of c-Jun N-Terminal Kinase 3 (JNK3). [Related pubchem assays: 746 ]
[16] = inhibition of ADAM10 peptide cleavage – biochemical, FRET peptide substrate, recombinant human ADAM10, selectivity assay for ADAM17 exosite inhibitor project, dose response (AID 743259);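 further: ADAM10 enzyme cleaving a FRET peptide substrate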
[17] = biological target: Disintegrin and metalloproteinase domain-containing protein 17 (Homo sapiens, UniProt P78536); assay: exosite inhibitors of ADAM17, dose response, biochemical (AID 743260)
[18] = biological target: T4, Histone-lysine N-methyltransferase NSD2 (Homo sapiens, UniProt O96028); format: biochemical
T4 sequence (O96028 whole entry): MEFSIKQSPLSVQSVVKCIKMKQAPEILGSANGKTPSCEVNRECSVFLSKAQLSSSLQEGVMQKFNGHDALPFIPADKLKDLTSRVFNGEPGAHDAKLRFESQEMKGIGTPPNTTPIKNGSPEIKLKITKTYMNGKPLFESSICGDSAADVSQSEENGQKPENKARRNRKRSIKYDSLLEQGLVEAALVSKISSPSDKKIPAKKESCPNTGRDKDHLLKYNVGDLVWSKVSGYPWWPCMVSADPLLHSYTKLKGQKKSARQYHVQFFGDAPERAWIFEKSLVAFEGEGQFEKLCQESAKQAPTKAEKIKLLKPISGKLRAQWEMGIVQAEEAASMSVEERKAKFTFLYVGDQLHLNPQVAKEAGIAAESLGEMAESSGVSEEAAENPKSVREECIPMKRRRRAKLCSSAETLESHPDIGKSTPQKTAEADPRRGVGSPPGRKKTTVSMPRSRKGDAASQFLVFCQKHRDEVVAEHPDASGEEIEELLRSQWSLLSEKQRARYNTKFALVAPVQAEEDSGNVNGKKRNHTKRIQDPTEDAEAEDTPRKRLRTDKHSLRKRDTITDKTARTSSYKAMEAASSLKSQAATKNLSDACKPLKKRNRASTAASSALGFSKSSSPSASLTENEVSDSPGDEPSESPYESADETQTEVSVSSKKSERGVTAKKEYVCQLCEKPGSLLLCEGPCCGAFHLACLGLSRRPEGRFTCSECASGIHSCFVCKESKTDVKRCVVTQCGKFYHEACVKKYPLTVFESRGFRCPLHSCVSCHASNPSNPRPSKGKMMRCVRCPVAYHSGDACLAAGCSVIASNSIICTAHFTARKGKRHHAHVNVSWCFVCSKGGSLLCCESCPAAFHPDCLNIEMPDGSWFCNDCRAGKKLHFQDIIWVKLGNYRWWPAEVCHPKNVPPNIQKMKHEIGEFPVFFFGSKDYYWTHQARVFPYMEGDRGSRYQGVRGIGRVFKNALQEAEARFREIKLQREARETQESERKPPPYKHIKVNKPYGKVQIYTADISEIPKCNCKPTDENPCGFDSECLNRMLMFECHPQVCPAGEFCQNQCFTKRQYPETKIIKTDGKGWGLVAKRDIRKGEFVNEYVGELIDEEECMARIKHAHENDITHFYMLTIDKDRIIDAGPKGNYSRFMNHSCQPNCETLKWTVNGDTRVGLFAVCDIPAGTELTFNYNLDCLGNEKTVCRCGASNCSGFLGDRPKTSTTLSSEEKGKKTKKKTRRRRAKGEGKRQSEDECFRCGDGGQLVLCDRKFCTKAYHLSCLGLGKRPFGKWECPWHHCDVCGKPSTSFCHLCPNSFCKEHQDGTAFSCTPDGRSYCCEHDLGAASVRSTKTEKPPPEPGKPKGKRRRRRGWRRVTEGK

Sequence of Sphingosine 1-phosphate receptor 2 (O95136 whole entry): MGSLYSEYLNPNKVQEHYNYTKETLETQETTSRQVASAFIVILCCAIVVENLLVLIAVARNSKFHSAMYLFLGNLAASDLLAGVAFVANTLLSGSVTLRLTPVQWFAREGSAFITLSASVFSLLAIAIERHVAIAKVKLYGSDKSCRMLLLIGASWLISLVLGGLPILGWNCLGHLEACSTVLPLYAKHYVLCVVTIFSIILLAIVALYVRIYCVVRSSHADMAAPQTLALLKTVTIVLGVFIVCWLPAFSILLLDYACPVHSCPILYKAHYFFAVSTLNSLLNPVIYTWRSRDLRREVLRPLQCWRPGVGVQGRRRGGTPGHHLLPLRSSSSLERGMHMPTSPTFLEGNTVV
Sequence of Mitogen-activated protein kinase 10 (P53779 whole entry): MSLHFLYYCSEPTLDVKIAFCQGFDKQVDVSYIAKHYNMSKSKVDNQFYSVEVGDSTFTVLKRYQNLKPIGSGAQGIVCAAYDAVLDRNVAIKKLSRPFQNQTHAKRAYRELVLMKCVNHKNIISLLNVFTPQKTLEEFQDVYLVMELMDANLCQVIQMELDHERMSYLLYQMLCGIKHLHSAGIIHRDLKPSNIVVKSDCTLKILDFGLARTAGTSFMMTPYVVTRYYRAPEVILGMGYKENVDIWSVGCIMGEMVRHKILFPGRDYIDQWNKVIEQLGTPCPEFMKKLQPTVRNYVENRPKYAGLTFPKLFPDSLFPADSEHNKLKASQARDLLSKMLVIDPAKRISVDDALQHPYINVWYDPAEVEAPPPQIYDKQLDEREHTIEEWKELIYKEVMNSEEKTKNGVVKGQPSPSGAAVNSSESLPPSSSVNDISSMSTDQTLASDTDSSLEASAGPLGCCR
Sequence of Beta-galactosidase (Q8VNN2 whole entry): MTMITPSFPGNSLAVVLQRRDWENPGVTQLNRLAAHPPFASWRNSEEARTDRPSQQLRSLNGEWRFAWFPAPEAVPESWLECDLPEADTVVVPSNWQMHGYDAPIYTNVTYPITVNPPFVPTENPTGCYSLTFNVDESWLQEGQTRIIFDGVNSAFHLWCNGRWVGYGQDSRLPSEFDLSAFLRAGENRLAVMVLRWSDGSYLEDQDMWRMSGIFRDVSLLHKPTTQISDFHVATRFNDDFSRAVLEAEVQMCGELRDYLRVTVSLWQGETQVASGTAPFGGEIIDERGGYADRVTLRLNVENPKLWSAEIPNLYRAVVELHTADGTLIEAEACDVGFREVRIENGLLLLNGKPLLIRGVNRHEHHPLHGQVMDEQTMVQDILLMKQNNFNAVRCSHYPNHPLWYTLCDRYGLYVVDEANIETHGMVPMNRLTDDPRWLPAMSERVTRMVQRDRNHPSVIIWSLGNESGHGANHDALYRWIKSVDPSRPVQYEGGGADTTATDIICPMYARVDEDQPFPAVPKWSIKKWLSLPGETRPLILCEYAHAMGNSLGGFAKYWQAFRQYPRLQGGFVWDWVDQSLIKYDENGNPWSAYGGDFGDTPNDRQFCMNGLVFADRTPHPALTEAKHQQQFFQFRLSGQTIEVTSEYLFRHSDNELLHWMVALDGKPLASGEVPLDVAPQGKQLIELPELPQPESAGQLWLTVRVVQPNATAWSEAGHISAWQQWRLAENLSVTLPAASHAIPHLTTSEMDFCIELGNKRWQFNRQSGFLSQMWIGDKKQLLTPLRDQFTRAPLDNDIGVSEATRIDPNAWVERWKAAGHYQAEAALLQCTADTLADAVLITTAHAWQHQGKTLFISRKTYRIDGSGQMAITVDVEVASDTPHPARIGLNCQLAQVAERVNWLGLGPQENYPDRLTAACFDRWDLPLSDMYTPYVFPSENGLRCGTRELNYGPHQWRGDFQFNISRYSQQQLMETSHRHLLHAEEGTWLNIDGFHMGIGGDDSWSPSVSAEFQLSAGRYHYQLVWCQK
Sequence of Disintegrin and metalloproteinase domain-containing protein 17 (P78536 whole entry, the tested form may be a part): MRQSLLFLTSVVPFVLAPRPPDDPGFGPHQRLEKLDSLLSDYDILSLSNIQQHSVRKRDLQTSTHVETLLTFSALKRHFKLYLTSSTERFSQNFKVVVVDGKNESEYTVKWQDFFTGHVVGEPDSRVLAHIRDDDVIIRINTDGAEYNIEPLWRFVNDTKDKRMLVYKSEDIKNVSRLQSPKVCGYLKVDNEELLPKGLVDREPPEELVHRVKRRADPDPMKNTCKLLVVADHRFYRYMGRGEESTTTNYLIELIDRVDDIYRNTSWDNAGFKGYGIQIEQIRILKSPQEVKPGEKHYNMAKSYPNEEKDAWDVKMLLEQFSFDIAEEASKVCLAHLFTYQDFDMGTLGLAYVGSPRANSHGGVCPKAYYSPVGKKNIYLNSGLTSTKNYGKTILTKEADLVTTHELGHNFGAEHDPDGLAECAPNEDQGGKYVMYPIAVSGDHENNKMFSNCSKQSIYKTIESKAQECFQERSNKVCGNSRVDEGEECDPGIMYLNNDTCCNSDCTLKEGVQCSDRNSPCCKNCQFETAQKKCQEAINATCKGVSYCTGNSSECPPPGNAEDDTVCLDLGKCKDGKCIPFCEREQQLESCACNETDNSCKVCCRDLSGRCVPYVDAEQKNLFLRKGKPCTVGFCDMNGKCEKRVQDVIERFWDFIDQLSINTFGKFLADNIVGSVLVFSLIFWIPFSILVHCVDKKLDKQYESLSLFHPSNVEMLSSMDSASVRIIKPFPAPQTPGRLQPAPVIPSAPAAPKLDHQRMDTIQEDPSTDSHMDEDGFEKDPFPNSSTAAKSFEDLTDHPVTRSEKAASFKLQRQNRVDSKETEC
Sequence of Estrogen receptor beta (Q92731 whole entry): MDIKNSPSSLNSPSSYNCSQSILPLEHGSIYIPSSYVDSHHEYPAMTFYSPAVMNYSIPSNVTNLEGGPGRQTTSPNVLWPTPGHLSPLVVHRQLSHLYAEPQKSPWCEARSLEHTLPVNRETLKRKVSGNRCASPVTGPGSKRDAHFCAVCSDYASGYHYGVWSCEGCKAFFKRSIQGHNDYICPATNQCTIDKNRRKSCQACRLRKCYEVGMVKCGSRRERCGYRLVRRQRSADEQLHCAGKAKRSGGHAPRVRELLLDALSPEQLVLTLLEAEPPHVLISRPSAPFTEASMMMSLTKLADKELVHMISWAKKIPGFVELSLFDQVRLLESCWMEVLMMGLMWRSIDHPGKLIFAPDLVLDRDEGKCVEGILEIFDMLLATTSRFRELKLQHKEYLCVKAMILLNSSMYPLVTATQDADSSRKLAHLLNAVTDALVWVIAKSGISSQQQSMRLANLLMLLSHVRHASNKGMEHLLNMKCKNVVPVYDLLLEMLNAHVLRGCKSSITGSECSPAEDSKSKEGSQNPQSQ

Compound: O=C(Nc1cccc(Oc2ccc3c(c2)C(=O)NC3=O)c1)c1cccs1
- IC50 [1]: > 80 µM (inactive)

Compound: O=C(Nc1ccc(F)cc1)c1cc(-c2cccs2)nc2ccccc12
- IC50 [2]: > 30 µM (not active)

Compound: C[C@H](CO)N1C[C@H](C)[C@@H](CN(C)C(=O)Nc2ccc3c(c2)OCO3)Oc2c(cccc2N(C)C)C1=O
- AC50 [3]: > 52 µM (inactive)

Compound: O=C(N/N=C/c1ccc([N+](=O)[O-])cc1)c1cc(-c2ccc3c(c2)OCO3)[nH]n1
- IC50 [4]: 7.27 µM (active)

Compound: O=C1c2cccc3c([N+](=O)[O-])ccc(c23)C(=O)N1Cc1cccnc1
- EC50 [5]: 3.67 µM (active)
- IC50 (Beta-galactosidase): 16.8 µM (active)
- EC50 [6]: 9.5 µM (active)

Compound: O=C(O)C(O)c1ccco1 (configuration not stated)
- IC50 [7]: 3.73 µM (active)
- IC50 (Estrogen receptor): > 50 µM (not active)
- IC50 (Estrogen receptor beta): 3.23 µM (not active)

Compound: FC(F)(F)c1cnc2c(-c3cccs3)csc2c1
- IC50 [2]: > 30 µM (not active)

Compound: COC(=O)C1=C(C)N(Cc2ccccc2)C(=S)NC1c1cccc(Br)c1 (configuration not stated)
- AC50 [8]: 33.6 µM (active)
- AC50 (HEK293): 33.6 µM (active)
- AC50 (Cryptococcus neoformans): 36.5 µM (active)

Compound: COC(=O)C1=C(C(=O)OC)C(C(=O)OC)C(C(=O)OC)C(C(=O)OC)(C(=O)OC)C(C(=O)OC)=C1C(=O)OC (configuration not stated)
- IC50 (Beta-galactosidase): > 66.6 µM (inactive)

Compound: CCC(C)[C@H](N)c1nnc(SCC(=O)c2ccc(Cl)cc2)o1 (some centres not stated)
- IC50 [1]: > 80 µM (inactive)

Compound: Cc1ccc(NC(=O)/C(=C/c2cccc([N+](=O)[O-])c2)NC(=O)C2CCCCC2)c(C)c1
- EC50 [9]: > 120 µM (not active)
- AC50 (Escherichia coli): 62.4 µM (active)
- IC50 (Estrogen receptor): > 50 µM (not active)

Compound: O=C1c2cnc3nc(SCc4ccccc4)nn3c2CC2c3ccccc3CCN12 (configuration not stated)
- EC50 [9]: > 120 µM (not active)

Compound: Cc1cc(C)cc(NC(=O)c2nnn(Cc3cc(C)ccc3C)c2N)c1
- IC50 [1]: > 80 µM (inactive)
- EC50 [10]: 8.37 µM (active)
- EC50 [11]: 18.2 µM (active)
- EC50 [12]: 39.8 µM (active)
- EC50 [13]: 13.6 µM (active)

Compound: O=C(Nc1ccccc1)N1CCCCN2[C@H](CO)[C@@H](c3ccc(C#CC4CC4)cc3)[C@@H]2C1
- AC50 (HeLa): > 52 µM (inactive)
- AC50 [8]: 14.4 µM (active)
- AC50 (HEK293): 14.4 µM (active)

Compound: O=C(Oc1coc(CSc2ncccn2)cc1=O)c1ccc(Br)o1
- EC50 [9]: > 120 µM (not active)

Compound: Cc1ccc(S(=O)(=O)CCC(=O)Nc2ccc3c(c2)OCO3)cc1
- IC50 [14]: > 100 µM (active)

Compound: COc1ccccc1NC(=O)COc1ccc(CO)cc1Cl
- IC50 [15]: 68.6 µM (not active)

Compound: CCN(CC)c1ccc(C2C3CCCCC3(O)CCN2CC(=O)Nc2ccccc2)cc1 (configuration not stated)
- IC50 [14]: > 100 µM (active)

Compound: CCCc1nc(SCC(=O)N2CCCC2)c2ccccc2n1
- IC50 [15]: 50.4 µM (not active)

Compound: Cc1ccsc1C(=O)Nc1ccc(F)cc1
- IC50 [2]: > 30 µM (not active)

Compound: CC1CN(S(=O)(=O)c2ccc(NC(=O)c3cc(-c4ccccc4O)n[nH]3)cc2)CC(C)O1 (configuration not stated)
- IC50 [16]: > 69.5 µM (inactive)
- IC50 [17]: > 69.5 µM (inactive)

Compound: CCN1CCCC1CNc1[nH]cnc2c3cc(F)ccc3nc1-2 (configuration not stated)
- AC50 [18]: > 20 µM (inactive)
